The text below walks through data of PubChem BioAssay AID256 (DTP/NCI, 2004).

This experiment deals with CD2F1 mice, L1210 leukemia ip, survival T/C. Kind of experiment: NCI In Vivo Anticancer Drug Screen. Data for tumor model L1210 Leukemia (intraperitoneal) in CD2F1 (CDF1) mice. Particulars: higher = longer survival. The gist of the method:
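Each value reflects a quotient of treated over vehicle control outcomes in mice with a transplanted tumor.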

[1] abbreviates: endpoint: mean survival time, dose: 50.0 mg/kg/injection, schedule: Q01DX009 (ip), vehicle: Klucel (hydroxypropylcellulose) (HPC).
Where [2] appears, read: endpoint: mean survival time, dose: 100.0 mg/kg/injection, schedule: Q01DX009 (ip), vehicle: Klucel (hydroxypropylcellulose) (HPC).
Where [3] appears, read: endpoint: mean survival time, dose: 100.0 mg/kg/injection, schedule: Q01DX009 (ip), vehicle: saline with Tween-80.
Setting [4] is: endpoint: mean survival time, dose: 200.0 mg/kg/injection, schedule: Q01DX009 (ip), vehicle: saline with Tween-80.
[5] abbreviates: endpoint: mean survival time, dose: 400.0 mg/kg/injection, schedule: Q01DX009 (ip), vehicle: saline with Tween-80.
[6] abbreviates: endpoint: mean survival time, dose: 79.0 mg/kg/injection, schedule: Q01DX009 (ip), vehicle: Klucel (hydroxypropylcellulose) (HPC).
The mark [7] stands for this setting: endpoint: mean survival time, dose: 118.0 mg/kg/injection, schedule: Q01DX009 (ip), vehicle: Klucel (hydroxypropylcellulose) (HPC).
[8] abbreviates: endpoint: mean survival time, dose: 177.0 mg/kg/injection, schedule: Q01DX009 (ip), vehicle: Klucel (hydroxypropylcellulose) (HPC).
Where [9] appears, read: endpoint: mean survival time, dose: 6.25 mg/kg/injection, schedule: Q01DX009 (ip), vehicle: saline.
The mark [10] stands for this setting: endpoint: mean survival time, dose: 12.5 mg/kg/injection, schedule: Q01DX009 (ip), vehicle: saline.
The mark [11] stands for this setting: endpoint: mean survival time, dose: 25.0 mg/kg/injection, schedule: Q01DX009 (ip), vehicle: saline.
The mark [12] stands for this setting: endpoint: mean survival time, dose: 100.0 mg/kg/injection, schedule: Q04DX003 (ip), vehicle: saline.
The mark [13] stands for this setting: endpoint: mean survival time, dose: 200.0 mg/kg/injection, schedule: Q04DX003 (ip), vehicle: saline.
Setting [14] is: endpoint: mean survival time, dose: 400.0 mg/kg/injection, schedule: Q04DX003 (ip), vehicle: saline.
The mark [15] stands for this setting: endpoint: mean survival time, dose: 100.0 mg/kg/injection, schedule: Q01DX001 (ip), vehicle: Klucel (hydroxypropylcellulose) (HPC).
[16] abbreviates: endpoint: mean survival time, dose: 100.0 mg/kg/injection, schedule: Q04DX003 (ip), vehicle: saline with Tween-80.
Setting [17] is: endpoint: mean survival time, dose: 200.0 mg/kg/injection, schedule: Q01DX001 (ip), vehicle: Klucel (hydroxypropylcellulose) (HPC).
The mark [18] stands for this setting: endpoint: mean survival time, dose: 200.0 mg/kg/injection, schedule: Q04DX003 (ip), vehicle: saline with Tween-80.
Setting [19] is: endpoint: mean survival time, dose: 400.0 mg/kg/injection, schedule: Q01DX001 (ip), vehicle: Klucel (hydroxypropylcellulose) (HPC).
The mark [20] stands for this setting: endpoint: mean survival time, dose: 400.0 mg/kg/injection, schedule: Q04DX003 (ip), vehicle: saline with Tween-80.
Where [21] appears, read: endpoint: mean survival time, dose: 200.0 mg/kg/injection, schedule: Q01DX009 (ip), vehicle: Klucel (hydroxypropylcellulose) (HPC).

Each structure is given as a SMILES string. “And” between values parts separate entries of the source, which are not always exact repeats. Identical values can stand only once. Toxic doses and inconclusive results are not listed.

For `C1CCC2OCCOCCOC3CCCCC3OCCOCCOC2C1` (stereo unspecified), the T/C runs as follows: (endpoint: mean survival time, dose: 3.12 mg/kg/injection, schedule: Q01DX009 (ip), vehicle: Klucel (hydroxypropylcellulose) (HPC)) 108 % of control; (endpoint: mean survival time, dose: 6.25 mg/kg/injection, schedule: Q01DX009 (ip), vehicle: Klucel (hydroxypropylcellulose) (HPC)) 98 % of control and 103 % of control; (endpoint: mean survival time, dose: 12.5 mg/kg/injection, schedule: Q01DX009 (ip), vehicle: Klucel (hydroxypropylcellulose) (HPC)) 87 % of control and 100 % of control; (endpoint: mean survival time, dose: 25.0 mg/kg/injection, schedule: Q01DX009 (ip), vehicle: Klucel (hydroxypropylcellulose) (HPC)) 102 % of control and 103 % of control; under setting [1], 100 % of control and 104 % of control; under setting [2], 91 % of control.
In the case of `C=C(C)CON=C(c1ccccc1)c1ccccc1`, the T/C reads like this: under setting [3], 98 % of control; under setting [4], 96 % of control; under setting [5], 98 % of control.
Turning to `CCCCCCCCN(C)N=Nc1ccc(C(N)=O)cc1`, the T/C by setting is: under setting [6], 104 % of control; under setting [7], 114 % of control; (endpoint: mean survival time, dose: 175.0 mg/kg/injection, schedule: Q01DX009 (ip), vehicle: Klucel (hydroxypropylcellulose) (HPC)) 117 % of control; under setting [8], 110 % of control; (endpoint: mean survival time, dose: 266.0 mg/kg/injection, schedule: Q01DX009 (ip), vehicle: Klucel (hydroxypropylcellulose) (HPC)) 122 % of control; (endpoint: mean survival time, dose: 400.0 mg/kg/injection, schedule: Q01DX009 (ip), vehicle: Klucel (hydroxypropylcellulose) (HPC)) 113 % of control and 118 % of control.
Take `Cc1c(N)nc(C(CC(N)=O)NCC(N)C(N)=O)nc1C(=O)NC(C(=O)NC(C)C(O)C(C)C(=O)NC(C(=O)NCCc1nc(-c2nc(C(=O)NCCCNCCCc3ccccn3)cs2)cs1)C(C)O)C(OC1OC(CO)C(O)C(O)C1OC1OC(CO)C(O)C(OC(N)=O)C1O)c1cnc[nH]1` (stereo unspecified): the T/C was 101 % of control (endpoint: mean survival time, dose: 0.2 mg/kg/injection, schedule: Q01DX009 (ip), vehicle: water); 107 % of control (endpoint: mean survival time, dose: 0.4 mg/kg/injection, schedule: Q01DX009 (ip), vehicle: water); 98 % of control (endpoint: mean survival time, dose: 0.8 mg/kg/injection, schedule: Q01DX009 (ip), vehicle: water); 104 % of control (endpoint: mean survival time, dose: 1.6 mg/kg/injection, schedule: Q01DX009 (ip), vehicle: water); 104 % of control (endpoint: mean survival time, dose: 3.2 mg/kg/injection, schedule: Q01DX009 (ip), vehicle: water); 111 % of control under setting [9]. Further, the T/C (endpoint: mean survival time, dose: 6.4 mg/kg/injection, schedule: Q01DX009 (ip), vehicle: water) was 107 % of control; the T/C under setting [10] was 103 % of control; the T/C under setting [11] is 108 % of control; the T/C (endpoint: mean survival time, dose: 50.0 mg/kg/injection, schedule: Q01DX009 (ip), vehicle: saline) is 105 % of control.
Take `CNCC(=O)NC(CO)C(=O)NC(CO)C(=O)NC1C(C(N)=O)OC(n2ccc(N)nc2=O)C(O)C1O` (stereo unspecified): the T/C (endpoint: mean survival time, dose: 0.19 mg/kg/injection, schedule: Q01DX005 (ip), vehicle: water) is 98 % of control; the T/C (endpoint: mean survival time, dose: 0.38 mg/kg/injection, schedule: Q01DX005 (ip), vehicle: water) was 104 % of control; the T/C (endpoint: mean survival time, dose: 0.75 mg/kg/injection, schedule: Q01DX005 (ip), vehicle: water) was 98 % of control.
Regarding `NNC(=O)CCC(=O)NN`, the T/C is 111 % of control under setting [9]; 103 % of control under setting [10]; 97 % of control under setting [11]; 98 % of control under setting [12]; 113 % of control under setting [13]; 101 % of control under setting [14].
For the compound `CCOC(=O)c1c[nH]c2ccc([N+](=O)[O-])cc2c1=O`, the T/C under setting [15] is 111 % of control; the T/C under setting [3] is 97 % of control; the T/C under setting [16] was 90 % of control; the T/C under setting [17] was 96 % of control; the T/C under setting [4] is 100 % of control; the T/C under setting [18] is 91 % of control. Further, the T/C was 100 % of control under setting [19], 94 % of control under setting [5] and 88 % of control under setting [20].
Take `c1ccc(P2(c3ccccc3)=NP(c3ccccc3)(c3ccccc3)=NP(c3ccccc3)(c3ccccc3)=N2)cc1`: the T/C is 102 % of control under setting [12], 94 % of control under setting [13] and 96 % of control under setting [14].
Take `COc1c(NC(=O)Nc2ccccc2Cl)cccc1[N+](=O)[O-]`: the T/C was 87 % of control (endpoint: mean survival time, dose: 25.0 mg/kg/injection, schedule: Q04DX002 (ip), vehicle: saline with Tween-80); 90 % of control (endpoint: mean survival time, dose: 50.0 mg/kg/injection, schedule: Q04DX002 (ip), vehicle: saline with Tween-80); 90 % of control (endpoint: mean survival time, dose: 100.0 mg/kg/injection, schedule: Q04DX002 (ip), vehicle: saline with Tween-80).
With `CSC(SC)=C(C#N)C#N`, the T/C by setting is: (endpoint: mean survival time, dose: 12.5 mg/kg/injection, schedule: Q04DX002 (ip), vehicle: saline) 102 % of control; (endpoint: mean survival time, dose: 25.0 mg/kg/injection, schedule: Q04DX002 (ip), vehicle: saline) 94 % of control; (endpoint: mean survival time, dose: 50.0 mg/kg/injection, schedule: Q04DX002 (ip), vehicle: saline) 92 % of control.
Turning to `O=C(CC(O)(C(F)(F)F)C(F)(F)F)C(Cl)C(O)(C(F)(F)F)C(F)(F)F` (stereo unspecified), the T/C (endpoint: mean survival time, dose: 100.0 mg/kg/injection, schedule: Q01DX001 (ip), vehicle: other) was 102 % of control.
Regarding `CCC1(OC(=O)CN2CCN(CCO)CC2)C(=O)OCc2c1cc1n(c2=O)Cc2cc3ccccc3nc2-1` (stereo unspecified), the T/C reads like this: (endpoint: median survival time, dose: 6.25 mg/kg/injection, schedule: Q04DX002 (ip), vehicle: water) 105 % of control and 108 % of control; (endpoint: median survival time, dose: 12.5 mg/kg/injection, schedule: Q04DX002 (ip), vehicle: water) 108 % of control and 112 % of control; (endpoint: median survival time, dose: 25.0 mg/kg/injection, schedule: Q04DX002 (ip), vehicle: water) 122 % of control and 110 % of control; (endpoint: median survival time, dose: 100.0 mg/kg/injection, schedule: Q04DX002 (ip), vehicle: water) 177 % of control.
`COc1ccc(OCCOC(=O)Nc2ccc(Cl)cc2OC)cc1`: the T/C is, setting by setting: (endpoint: mean survival time, dose: 50.0 mg/kg/injection, schedule: Q01DX009 (ip), vehicle: saline with Tween-80) 89 % of control; under setting [3], 93 % of control; under setting [4], 93 % of control.
Take `Cc1cn(C2CC(O)C(COC(N)=O)O2)c(=O)[nH]c1=O` (stereo unspecified): the T/C was 116 % of control under setting [15], 92 % of control under setting [17] and 104 % of control under setting [19].
Regarding `COc1ccc(NC(=O)Oc2ccccc2F)c(Cl)c1`, the T/C is 96 % of control under setting [1], 107 % of control under setting [2] and 104 % of control under setting [21].
As for `CC(=O)N/C(=C/c1ccccc1)C(=O)NC(C)(C)C`, the T/C is, setting by setting: under setting [16], 96 % of control; under setting [18], 99 % of control; under setting [20], 89 % of control.
Regarding `CC1(C)OC2COC(c3cc(C(N)=O)n[nH]3)C2O1` (stereo unspecified), the T/C runs as follows: (endpoint: mean survival time, dose: 100.0 mg/kg/injection, schedule: Q01DX001 (ip), vehicle: saline with Tween-80) 106 % of control; (endpoint: mean survival time, dose: 200.0 mg/kg/injection, schedule: Q01DX001 (ip), vehicle: saline with Tween-80) 101 % of control; (endpoint: mean survival time, dose: 400.0 mg/kg/injection, schedule: Q01DX001 (ip), vehicle: saline with Tween-80) 105 % of control.
On to `CN(C)N=Nc1ccc([N+](=O)[O-])cc1`, for which the T/C is 98 % of control under setting [1]; 102 % of control under setting [6]; 102 % of control under setting [2]; 108 % of control under setting [7]; 120 % of control under setting [8]; 108 % of control under setting [21].
As to `C/C=C1/C[C@@H](C)[C@@](C)(O)C(=O)OCC2=CCN3CC[C@@H](OC1=O)[C@@H]23`, the T/C is, setting by setting: (endpoint: mean survival time, dose: 50.0 mg/kg/injection, schedule: Q04DX003 (ip), vehicle: saline with Tween-80) 103 % of control; under setting [16], 103 % of control; under setting [18], 98 % of control.
As to `Nc1ncnc2nc(-c3ccc(OCc4ccccc4)cc3)[nH]c12`, the T/C by setting is: under setting [15], 97 % of control; under setting [17], 89 % of control; under setting [19], 95 % of control.
Turning to `C[N+](C)=CN1c2ccccc2Sc2ccccc21`, the T/C was 97 % of control under setting [3] and 103 % of control under setting [4].
